Key:
cytochrome oa3 oxidase = molecular target: T1, cytochrome oa3 oxidase (Aeropyrum pernix, UniProt Q9YDX6+Q9YDX7); experiment: spectrophotometric TMPD oxidation at […] nm; format: biochemical; conditions: 25 mM TMPD, 0.1 M NaCl, 50 mM NaPi pH 6.5, 40 °C; without added cytochrome c553
T1 construct: gene aoxB; native, partially purified from A. pernix K1 membranes in DDM; 140 kDa on BN-PAGE; bands 74, 40 and 25 kDa (25 kDa = cytochrome c553); assigned to AoxA/AoxB by size only; aoxABC = APE_0792.1, APE_0793.1, APE_0795.1

[1] = molecular target: T2, cytochrome c553 complex (cytochrome bc complex) (Aeropyrum pernix, UniProt Q9YB72+Q9YB73+Q9YB78); experiment: spectrophotometric menaquinol oxidation / yeast cytochrome c reduction; format: biochemical; conditions: acceptor yeast cytochrome c; pH 7.0, 40 °C, 0.2 mM menaquinol-1 (menaquinol oxidase assay); 0.1% DDM
T2 construct: gene soxC; native complex purified from A. pernix K1 membranes in DDM; 80 kDa on BN-PAGE; subunits 40, 30 and 25 kDa; only the 25-kDa subunit identified by mass (21,344)
T2 sequence (Q9YB72 1-571): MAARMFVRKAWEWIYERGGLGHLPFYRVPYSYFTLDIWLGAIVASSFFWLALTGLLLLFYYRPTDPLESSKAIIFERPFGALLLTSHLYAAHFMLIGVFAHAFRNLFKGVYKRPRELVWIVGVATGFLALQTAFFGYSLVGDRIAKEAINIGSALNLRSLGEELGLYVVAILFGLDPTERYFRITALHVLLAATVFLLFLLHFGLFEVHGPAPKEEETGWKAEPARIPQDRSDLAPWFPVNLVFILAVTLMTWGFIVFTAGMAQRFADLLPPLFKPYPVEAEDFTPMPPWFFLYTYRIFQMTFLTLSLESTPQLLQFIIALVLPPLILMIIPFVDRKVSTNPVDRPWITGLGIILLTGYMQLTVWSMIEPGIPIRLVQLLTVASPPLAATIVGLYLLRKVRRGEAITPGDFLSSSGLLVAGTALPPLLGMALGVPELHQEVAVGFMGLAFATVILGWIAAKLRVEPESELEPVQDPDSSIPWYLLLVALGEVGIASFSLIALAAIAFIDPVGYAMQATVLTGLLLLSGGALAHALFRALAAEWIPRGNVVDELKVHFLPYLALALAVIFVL
T2 sequence (Q9YB73 34-265): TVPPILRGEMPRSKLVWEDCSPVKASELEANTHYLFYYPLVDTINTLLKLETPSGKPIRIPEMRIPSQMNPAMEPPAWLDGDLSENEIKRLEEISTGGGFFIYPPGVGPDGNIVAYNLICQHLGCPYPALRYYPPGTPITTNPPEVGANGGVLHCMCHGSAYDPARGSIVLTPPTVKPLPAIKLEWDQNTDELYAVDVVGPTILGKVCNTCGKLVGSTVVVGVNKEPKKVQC
T2 sequence (Q9YB78 1-190): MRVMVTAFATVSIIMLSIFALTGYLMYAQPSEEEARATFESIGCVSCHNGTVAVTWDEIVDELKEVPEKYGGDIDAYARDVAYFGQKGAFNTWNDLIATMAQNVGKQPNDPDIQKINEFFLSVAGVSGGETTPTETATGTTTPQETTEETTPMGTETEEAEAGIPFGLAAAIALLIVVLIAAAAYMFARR

T1 sequence (Q9YDX6 whole entry): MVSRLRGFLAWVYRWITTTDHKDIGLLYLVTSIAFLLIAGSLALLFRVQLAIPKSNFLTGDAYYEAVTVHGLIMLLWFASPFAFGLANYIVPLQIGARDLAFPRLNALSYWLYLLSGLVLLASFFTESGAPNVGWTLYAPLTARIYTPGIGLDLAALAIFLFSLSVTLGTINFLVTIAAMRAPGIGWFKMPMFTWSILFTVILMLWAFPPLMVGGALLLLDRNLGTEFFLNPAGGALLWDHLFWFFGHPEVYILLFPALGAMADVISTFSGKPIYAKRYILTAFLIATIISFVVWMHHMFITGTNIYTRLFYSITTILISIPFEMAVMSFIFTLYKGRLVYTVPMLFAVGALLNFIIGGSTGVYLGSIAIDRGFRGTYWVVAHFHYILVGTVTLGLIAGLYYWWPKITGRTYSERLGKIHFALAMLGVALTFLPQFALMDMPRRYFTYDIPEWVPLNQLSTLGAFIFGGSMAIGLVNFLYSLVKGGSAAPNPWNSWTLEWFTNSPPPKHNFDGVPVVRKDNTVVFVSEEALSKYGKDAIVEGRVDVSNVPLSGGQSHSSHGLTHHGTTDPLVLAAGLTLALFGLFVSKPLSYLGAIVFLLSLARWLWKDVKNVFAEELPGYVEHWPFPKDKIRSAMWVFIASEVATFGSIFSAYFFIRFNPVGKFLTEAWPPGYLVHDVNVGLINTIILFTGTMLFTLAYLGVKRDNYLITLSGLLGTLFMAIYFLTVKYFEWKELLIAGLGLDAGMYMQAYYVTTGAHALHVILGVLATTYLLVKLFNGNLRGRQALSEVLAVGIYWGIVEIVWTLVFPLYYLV
T1 sequence (Q9YDX7 whole entry): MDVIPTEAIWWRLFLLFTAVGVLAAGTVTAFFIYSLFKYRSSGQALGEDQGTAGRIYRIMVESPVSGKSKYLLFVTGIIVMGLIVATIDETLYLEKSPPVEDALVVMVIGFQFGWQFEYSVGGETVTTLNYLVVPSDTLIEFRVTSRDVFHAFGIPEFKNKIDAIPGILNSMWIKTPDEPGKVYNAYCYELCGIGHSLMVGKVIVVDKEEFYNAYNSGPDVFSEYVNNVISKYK
T1 sequence (Q9YDX4 whole entry partner): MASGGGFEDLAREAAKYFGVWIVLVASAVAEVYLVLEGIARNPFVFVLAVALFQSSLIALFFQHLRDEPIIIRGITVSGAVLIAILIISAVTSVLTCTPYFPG

| Compound | spectrophotometric TMPD oxidation at 562 nm (cytochrome oa3 oxidase) | spectrophotometric menaquinol oxidation / yeast cytochrome c reduction [1] |
| --- | --- | --- |
| CN(C)c1ccc(N(C)C)cc1 [TMPD, N,N,N',N'-tetramethyl-p-phenylenediamine] | The isolated cytochrome oa3 oxidase had TMPD and yeast cytochrome c oxidation activity | – |
| CC(C)=CCc1c(C)c(O)c2ccccc2c1O [menaquinol-1] | – | cytochrome c553 oxidized menaquinol and reduced yeast cytochrome c |

Source: publication PMC3062577, “Purification and biochemical properties of a cytochrome bc complex from the aerobic hyperthermophilic archaeon Aeropyrum pernix” (BMC Microbiology, 2011)
